Consider two molecules from EP1944295A1, “Non-racemic mixtures of (R)-N-piperidinyl-5-(4-chlorophenyl)1-(2,4-dichlorophenyl)-4,5-dihydro-1H-pyrazole-3-carboxamide and (S)-N-piperidinyl-5-(4-chlorophenyl)-1-(2,4-dichlorophenyl)-4,5-dihydro-1H-pyrazole-3-carboxamide” (Laboratorios del Dr. Esteve S.A., priority 2007, dated 2008).

Data set [1] concerns the target Herg channel (Homo sapiens, UniProt Q12809). Put plainly: Herg channel affinity (statement only, no method). It counts as binding. The following applies: low risk of prolongation of the QT-interval expected.
For data set [2], the target named is T1, rat CB1 receptors (Rattus norvegicus, UniProt P20272).
T1 construct: cerebella from male Wistar rats (250-300g) were carefully dissected on ice and homogenates were prepared; from tissue; host or cells: rat cerebellum membranes (male Wistar rats)
T1 sequence (P20272 whole entry): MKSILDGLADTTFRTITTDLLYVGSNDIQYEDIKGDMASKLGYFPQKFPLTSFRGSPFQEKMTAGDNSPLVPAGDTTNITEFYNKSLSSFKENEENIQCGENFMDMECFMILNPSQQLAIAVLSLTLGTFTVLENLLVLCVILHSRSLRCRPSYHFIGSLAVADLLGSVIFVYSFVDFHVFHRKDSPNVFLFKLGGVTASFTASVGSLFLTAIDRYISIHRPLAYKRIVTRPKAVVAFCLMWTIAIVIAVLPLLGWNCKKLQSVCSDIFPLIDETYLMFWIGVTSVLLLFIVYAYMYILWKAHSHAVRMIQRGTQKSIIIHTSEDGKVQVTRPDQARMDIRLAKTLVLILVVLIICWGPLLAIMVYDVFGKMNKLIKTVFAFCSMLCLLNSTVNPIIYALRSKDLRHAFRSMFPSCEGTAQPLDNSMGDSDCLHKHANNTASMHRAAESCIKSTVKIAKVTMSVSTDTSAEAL
Put plainly: Binding affinity to CB1 receptor, competitive binding with [3H]-CP 55,940 in rat cerebellum membranes. Particulars: for pIC50: 1 nM [3H]-CP 55,940, read-out: IC50. As to the method:
Binding affinity to CB1 receptor was evaluated according to the method of Govaerts et al (2004) with the following modifications. Briefly, cerebella from male Wistar rats (250-300g) were carefully dissected on ice and homogenates were prepared in cold 50 mM Tris-HCl, 5 mM MgCl2, 1 mM EDTA, 0.25 M sucrose, pH 7.4 with a Potter-Heljheim homogeniser and the suspension was centrifuged at 1,000 x g for 5 minutes. The supernatants were collected and centrifuged at 50,000 x g for 15 min. The resulting pellets were resuspended in Tris-HCl buffer without sucrose, homogenized and incubated for 15 min at 37°C in an orbital shaker bath and centrifuged again at 50,000 x g for 15 min. Pellets were weighed, resuspended in Tris-HCl buffer without sucrose, homogenized with an Ultraturrax homogeniser at 13,500 rpm for 3 x 5 seconds and aliquoted in 0.9 ml volumes in Eppendorf tubes. Aliquots were centrifuged at 20,800 x g for 5 minutes, supernatants discarded and pellets were frozen at -80°C until use. Total protein concentration was determined using a Bio-Rad commercial assay base on the Lowry method. Competitive binding experiments were performed in presence of 1 nM [^3H]-CP 55,940 in siliconized glass tubes containing 100 µg protein/tube resuspended in 1 ml final volume of 50 mM Tris-HCl, 5 mM MgCl2, 1 mM EDTA, 0.5% (w/v) bovine serum albumin, pH 7.4. Competitors were present at various concentrations and the non-specific binding was determined in the presence of 10 µM HU-210. After 1 hour incubation at 30°C, the suspension was rapidly filtered through 0.5% PEI pre-treated GF/B fiber filters on a 96-well harvester and washed 3 times with 3ml ice-cold binding buffer without bovine serum albumin. Radioactivity on filters was measured with Wallac Winspectral 1414 counter by liquid scintillation in 6 ml Ecoscint H (National Diagnostics, U.K.). Assays were made in triplicate.
Binding data were analyzed by non-linear regression with the software GraphPad Prism Version 3.03.

Data set [3] is described as follows: Plasma glycerol and triacylglycerol assay. The following applies: obese rats, vs vehicle; for reduction of plasma glycerol levels / reduction of plasma triacylglycerol concentrations: 30 mg/kg po once daily for 28 days. It counts as in vivo, female Wistar rats. As to the method:
(§1) The experiment was performed on female Wistar rats (originally in the weight range 250-300 g). The rats were housed in pairs in polypropylene cages with solid floors and sawdust bedding at a temperature of 21±4°C and 55±20% humidity. Animals were maintained on a reverse phase light-dark cycle (lights off for 8 h from 09.30-17.30 h) during which time the room was illuminated by red light. Animals had free access to powdered high fat diet (VRF1 plus 20% lard), ground chocolate, ground peanuts and tap water at all times. The three different diets were contained in separate glass feeding jars with aluminum lids with a 3-4 cm hole cut in it to allow access to the food. Animals were housed in pairs for twelve weeks for the induction of obesity. Animals were then housed singly in polypropylene cages with wire grid floors to enable the food intake of each rat to be recorded. Polypropylene trays with cage pads were placed beneath each cage to detect any food spillage. Animals were accustomed to these new conditions (individual housing and the wire-grid floor cages) for at least 14 days before the start of the baseline readings.
(§2) Approximately a week before the start of the study, animals were weighed (to the nearest 0.1 g using an electronic top-pan balance) and allocated into […], each containing 9-10 animals. Following a 7 day baseline run-in period, during which the animals were dosed by the appropriate route (eg orally) once a day with vehicle (0.5% hydroxy-propyl-methylcellulose [HPMC]; 1 ml/kg) or the test drug, ie COMPOUND A (10 and 30 mg/kg po) and COMPOUND B (10 and 30 mg/kg po) once daily for 28 days.
Terminal blood samples via cardiac puncture were taken from the animals immediately after death into Sarstedt 4.5 ml lithium-heparin tubes (Cat No. 32.331). Tubes were then centrifuged at 1,500 g for 5 minutes at 4°C and the plasma removed and immediately frozen on dry ice (as 3 aliquots per sample in sealed Eppendorf tubes). Plasma samples were stored at -75°C until required for analysis. All determinations were performed on plasma samples that had been thawed only once.
Plasma triacylglycerol was determined by modification of a discrete assay kit (Sigma Triglyceride determination kit, Cat No. TR0100) to a 96-well format. The kit actually determines liberated glycerol following enzymic hydrolysis of triacylglycerol to free fatty acids and glycerol (1 mole glycerol per mole of triacylglycerol). For this reason, correction for the glycerol concentration originally present in the plasma is required. Plasma samples were, therefore, assayed in the absence (free plasma glycerol) or presence (total triacylglycerol) of lipoprotein lipase. Subtraction of free glycerol from total triacylglycerol concentration then derives the true triacylglycerol concentration.
A 2.5 mg/ml triolein equivalent glycerol standard was obtained from Sigma. The supplied Sigma mM conversion factor for this batch was 1.13 (ie 2.83 mM glycerol). A 10 mg/ml glycerol stock solution was prepared in saline and then diluted in saline to create a series of standard concentrations from 0.218 to 4.34 mM. Standards and plasma samples (undiluted) were pipetted into the 96-well plates as 10 µl additions in duplicate. Assay plates and reagents were preheated at 37°C and the reaction started by adding 200 µl of either the glycerol or total triacylglycerol reagent (reconstituted as per manufacturer's protocol) followed by incubation at 37°C for 5 minutes after which optical density at 540 nm was determined using a Molecular Devices VERSAmax tunable microplate reader. Optical density readings were then transferred to GraphPad Prism and unknown values extrapolated from a linear regression fit to the standard curve. The assay was linear up to the highest glycerol standard employed (4.34 mM). Subtraction of the glycerol concentration in the plasma samples from the total triacylglycerol concentration derived the true triacylglycerol concentration.

The nature of data set [4]: Feeding study: body weight of obese rats with access to highly palatable cafeteria diet. Type of data set: in vivo, female Wistar rats. The following applies: after 28 days of treatment, dietary-induced obese rats. As to the method: as §1, §2
Food intake and body weight were measured once daily. Variations in body weight and energy levels of the different types of food were accounted for by expressing the food intake results in terms of kJ/kg rat weight.
Statistical comparisons between the body weights and daily food intakes of the different treatment groups have been made by analysis of covariance followed by Dunnett's test to compare each treatment group with the vehicle-treated controls. For the body weight data (body weights each day), the weights of the animals on Day 1 (ie immediately before the first drug treatment) were used as the covariate. Thus, means were adjusted for differences in body weight between the groups on Day 1 and standard errors of the mean (SEM) were calculated from the residuals of the statistical model. All mean body weight values on Day 1 are identical (and SEM are therefore zero) because the analysis of covariance adjusts them all to equal the 'grand mean' of the values of this day.

A short description of data set [5]: Determination of carcass fat content (Soxhlet). Type of data set: in vivo, female Wistar rats. The following applies: obese rats, g per rat. As to the method: as §1, with “Polypropylene trays with cage pads were placed beneath each cage to detect any food spillage.” left out, “readings. […]” for “readings.”
Percentage fat in the freeze-dried sample was calculated as follows: % fat = [100×(final cup weight-initial cup weight)]/sample weight [formula]
Percentage fat in the original sample was calculated using the % water as follows: % fat in original sample = % fat × [(100-% water)/100] […]

A short description of data set [6]: Plasma NEFA assay. It counts as in vivo, female Wistar rats. Particulars: 30 mg/kg po once daily for 28 days, obese rats. How it is done:
as §1, with “Animals were housed in pairs for twelve weeks for the induction of obesity.” left out, “Polypropylene trays with cage pads were placed beneath each cage to detect any food spillage.” left out, “readings. […]” for “readings.”
Non-esterified (or free) fatty acids (NEFA) were determined by modification of a commercial clinical analyser assay kit (Wako NEFA C ACS-ACOD method) to a 96-well format. […] After exactly 10 minutes, 150 µl of reagent B was added and the plate incubated for a further 10 minutes after which optical density at 540 nm was determined using a Molecular Devices VERSAmax tunable microplate reader. […]

Data set [7] in a line: Plasma leptin assay. Type of data set: in vivo, female Wistar rats. Particulars: obese rats. As to the method: as §1, with “Polypropylene trays with cage pads were placed beneath each cage to detect any food spillage.” left out, “readings. […]” for “readings.”
Plasma leptin concentration was determined using Assay Designs rat leptin enzyme immunometric assay kits (Cat No. 900-015) according to the manufacturer's regular protocol. […] Optical density at 450 nm was determined using a Molecular Devices VERSAmax tunable microplate reader and readings transferred to GraphPad Prism. […]

The mark [8] stands for this setting: 10 mg/kg po once daily for 28 days.
Setting [9] is: 30 mg/kg po once daily for 28 days.

pIC50: −log10 of the molar value. Like-named read-outs stand apart in the source and are kept apart here.

Herg channel, sequence (Q12809 whole entry): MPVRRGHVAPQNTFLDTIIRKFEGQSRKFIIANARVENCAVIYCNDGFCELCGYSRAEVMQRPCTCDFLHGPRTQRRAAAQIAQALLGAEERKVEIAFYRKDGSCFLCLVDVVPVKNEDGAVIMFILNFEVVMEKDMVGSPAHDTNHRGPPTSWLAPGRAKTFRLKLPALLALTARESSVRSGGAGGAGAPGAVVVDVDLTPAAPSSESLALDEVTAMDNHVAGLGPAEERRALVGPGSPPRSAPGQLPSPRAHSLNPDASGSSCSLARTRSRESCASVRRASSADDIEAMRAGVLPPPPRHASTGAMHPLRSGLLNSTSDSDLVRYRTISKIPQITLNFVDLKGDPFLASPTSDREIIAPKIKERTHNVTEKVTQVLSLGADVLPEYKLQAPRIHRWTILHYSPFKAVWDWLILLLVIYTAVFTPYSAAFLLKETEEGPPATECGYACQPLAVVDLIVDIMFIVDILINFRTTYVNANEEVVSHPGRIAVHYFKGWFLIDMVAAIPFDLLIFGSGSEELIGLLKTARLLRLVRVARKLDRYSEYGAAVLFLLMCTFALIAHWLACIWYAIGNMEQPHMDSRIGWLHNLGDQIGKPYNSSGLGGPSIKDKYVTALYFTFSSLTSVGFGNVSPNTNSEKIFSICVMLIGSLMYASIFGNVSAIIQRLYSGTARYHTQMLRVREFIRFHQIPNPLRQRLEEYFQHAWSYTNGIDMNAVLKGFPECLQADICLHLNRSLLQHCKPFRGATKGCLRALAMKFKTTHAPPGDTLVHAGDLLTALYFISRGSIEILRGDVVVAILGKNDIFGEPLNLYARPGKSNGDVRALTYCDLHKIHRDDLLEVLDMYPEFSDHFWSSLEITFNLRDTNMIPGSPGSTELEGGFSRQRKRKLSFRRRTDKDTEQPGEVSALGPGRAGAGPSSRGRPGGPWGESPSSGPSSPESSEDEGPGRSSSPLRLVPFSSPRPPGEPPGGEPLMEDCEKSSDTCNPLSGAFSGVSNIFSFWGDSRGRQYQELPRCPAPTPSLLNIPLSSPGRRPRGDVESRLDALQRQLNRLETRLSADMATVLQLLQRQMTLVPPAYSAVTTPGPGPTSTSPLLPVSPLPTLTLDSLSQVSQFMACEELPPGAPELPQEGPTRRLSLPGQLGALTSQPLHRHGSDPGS

One may read the pIC50 as the negative decadic logarithm of the IC50, by convention in mol/L. Turning to `O=C(NN1CCCCC1)C1=NN(c2ccc(Cl)cc2Cl)[C@@H](c2ccc(Cl)cc2)C1` [Compound A, (R)-N-piperidinyl-5-(4-chlorophenyl)-1-(2,4-dichlorophenyl)-4,5-dihydro-1H-pyrazole-3-carboxamide], the Herg channel affinity result in data set [1] is given as “relatively weak”. Further, the pIC50 in data set [2] was 7.79. In addition, in data set [2] (1 nM [3H]-CP 55,940, read-out: pIC50 (converted)), the IC50 is 21.9 nM. In data set [3] (setting [8]), the “effect on plasma glycerol levels” value was “no significant effect” and the “effect on plasma triacylglycerol concentrations” value was “no significant effect”. For the same molecule, in data set [3], the “reduction of plasma glycerol levels” value was determined as 33.6% and the “reduction of plasma triacylglycerol concentrations” value amounted to 42%. Further, in data set [4] (10 mg/kg po once daily), the “% reduction of body weight compared to the control group on Day 29” value (shortened to “% reduction of body weight”) was determined as 12.0%. For the same molecule, the “% reduction of body weight” value in data set [4] (30 mg/kg po once daily) is listed as 19.0%.

Turning to `O=C(NN1CCCCC1)C1=NN(c2ccc(Cl)cc2Cl)[C@H](c2ccc(Cl)cc2)C1` [Compound B, (S)-N-piperidinyl-5-(4-chlorophenyl)-1-(2,4-dichlorophenyl)-4,5-dihydro-1H-pyrazole-3-carboxamide], the “decrease in absolute body fat compared to the vehicle-treated control group” value in data set [5] (setting [8]) is 26.2 g; in data set [5] (setting [9]), 11.1 g. The pIC50 in data set [2] was 6.09. For the same molecule, the “reduction of plasma glycerol levels” value in data set [3] turned out to be 38.9%. Further, in data set [3], the “reduction of plasma triacylglycerol concentrations” value came out at 52.1%. In data set [6], the “decrease of plasma NEFA levels compared to the vehicle-treated control group” value was 24.4%. Moreover, the results for the “% reduction of body weight” value in data set [4] (10 mg/kg po once daily) and in data set [4] (30 mg/kg po once daily) were 4.0% and 7.1%, respectively. The “decrease of plasma leptin levels compared to the vehicle-treated control group” value turned out to be 13.7% in data set [7] (setting [8]) and 26.2% in data set [7] (setting [9]).
